Drawing on PubChem BioAssay (NCI), this text covers TGI and GI50 for 24 compounds.

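Results reflect a 48-hour exposure of cells in 96-well plates to compound at five concentrations. The concentration for 50% growth inhibition is given as GI50. Definition used: TGI = concentration required for complete inhibition of growth.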 Some results are limits rather than exact numbers.

The subject of the first assay is SW-620 colon. The assay can be described thus: NCI tumour cell line growth inhibition, 48 h.
`CC(C)=CCC\C(C)=C/C=C/C(C)=C\C=C\C(C)=C/C=C/C=C(C)\C=C\C=C(C)/C=C/C=C(/C)CCC=C(C)C`: the TGI was greater than 100 µM.
`COC(=O)c1ccccc1NC(=O)C(=O)Cc1nc2c3c(ccc2[nH]c1=O)C(=O)c1ccccc1C3=O` returned a TGI of 55.7 µM.
Consider `FC(F)(F)c1cccc(Nc2nc(-c3ccccc3)nc3ncccc23)c1`, for which the GI50 is 5.2 µM and the TGI stood at 24.7 µM.
`CCOC(=O)C(C)(C)Oc1ccc2c(-c3ccccc3)cc(=O)oc2c1`: the TGI is greater than 100 µM.
Still for that read-out and setting: the value for `CCCC1C(=O)CCc2c(OC)ccc(OC)c21` (configuration not stated) was greater than 100 µM.
In the case of `NC(=O)NO.O.O.O.O.O.O.O.O.O.O.O.[Ge].[Ge].[Ge].[Ge].[Ge].[O]=[Ge].[O]=[Ge].[O]=[Ge].[O]=[Ge].[O]=[Ge][OH]`, the TGI was greater than 100 µM.
The same measure, in the same setting: the value for `O=C(Nc1nc2ccc([N+](=O)[O-])cc2s1)C(=O)C(C1OC(=O)c2ccccc21)[N+](=O)[O-]` (configuration not stated) was greater than 100 µM; that for `COc1cc2cc(OC)c3cc4c(cc3c2c(OC)c1OC)OCO4` was 43.8 µM.
For `CCC[CH2][Sn]([CH2]CCC)([S]c1cccc2cccnc12)[S]c1cccc2cccnc12`, the GI50 was 0.132 µM and the TGI turned out to be 0.379 µM.
`COC(=O)C1(C(C)C)CCc2c(OC)ccc(OC)c2C1=O` (configuration not stated): the TGI was greater than 100 µM.
`OCc1cc2ccccc2c2c3c(ccc12)OCO3`: the GI50 is 29 µM and the TGI was 118 µM.

In a further assay the test system is SF-539 CNS. The assay can be described thus: NCI tumour cell line growth inhibition, 48 h.
For the compound `CC1CCc2nc[nH]c(=O)c21` (configuration not stated), the GI50 is greater than 100 µM and the TGI is greater than 100 µM.
`Cc1cc(N(CCC#N)CCC#N)ccc1N=Nc1ccc(S(N)(=O)=O)cc1`: the TGI was greater than 100 µM.
`Cc1nc2c(ccc3ncccc32)[nH]1`: the TGI is greater than 100 µM.
On the same count and under the same terms, the value for `CN(C)C(=S)N=C(Nc1ccccc1)Nc1ccccc1` was greater than 100 µM; that for `Nc1ccccc1S(=O)(=O)N(CC(=O)O)c1ccccc1` was greater than 100 µM.
On the same count and under the same terms, the result for `COc1ccccc1N1C(=O)C2c3[nH]c4ccccc4c3C3CCC(C(C)(C)C)CC3C2C1=O` (configuration not stated) reads greater than 100 µM.
As for `C=CCO[C@H]1CO[C@H]2[C@@H]1OC[C@@H]2Oc1ccc(Nc2ccnc(Nc3ccc(O[C@H]4CO[C@H]5[C@@H]4OC[C@@H]5OCC=C)c(Cl)c3)n2)cc1Cl`, the GI50 is 1.83 µM and the TGI came to 3.25 µM.
In the case of `O=C(O)CCC(NC(=O)c1ccc(Nc2nc3ccccc3nc2-c2cccs2)cc1)C(=O)O` (configuration not stated), the TGI was greater than 100 µM.
Regarding `COc1cc2ccnc([C@@H](OC(=O)c3ccccc3)c3ccc(OC)c(OC)c3OC)c2cc1OC`, the TGI is greater than 100 µM.
Same read-out and setting: the value for `COC(=O)/C(C#N)=C1\NC(=O)c2ccccc21` was greater than 100 µM; that for `O=C(O)CCNCCCNCCC(=O)O` was greater than 100 µM.
`Cc1nc2sccn2c1-c1csc(Nc2ccccc2Cl)n1`: the GI50 is 3.2 µM and the TGI is 16.3 µM.
`NC1=NCCC1(c1ccccc1)c1ccccn1` (configuration not stated) came in with a TGI greater than 100 µM.
The same measure, in the same setting: the result for `CC(C)=CCC\C(C)=C/C=C/C(C)=C\C=C\C(C)=C/C=C/C=C(C)\C=C\C=C(C)/C=C/C=C(/C)CCC=C(C)C` reads greater than 100 µM.
For the compound `COC(=O)c1ccccc1NC(=O)C(=O)Cc1nc2c3c(ccc2[nH]c1=O)C(=O)c1ccccc1C3=O`, the TGI is greater than 100 µM.
As to `FC(F)(F)c1cccc(Nc2nc(-c3ccccc3)nc3ncccc23)c1`, the GI50 was 5.06 µM and the TGI is 17.5 µM.
`CCOC(=O)C(C)(C)Oc1ccc2c(-c3ccccc3)cc(=O)oc2c1` yielded a TGI of 86.5 µM.
Still for that read-out and setting: the value for `CCCC1C(=O)CCc2c(OC)ccc(OC)c21` (configuration not stated) was greater than 100 µM.
Compound `NC(=O)NO.O.O.O.O.O.O.O.O.O.O.O.[Ge].[Ge].[Ge].[Ge].[Ge].[O]=[Ge].[O]=[Ge].[O]=[Ge].[O]=[Ge].[O]=[Ge][OH]` showed a TGI greater than 100 µM.
Compound `O=C(Nc1nc2ccc([N+](=O)[O-])cc2s1)C(=O)C(C1OC(=O)c2ccccc21)[N+](=O)[O-]` (configuration not stated) registered a TGI greater than 100 µM.
The same measure, in the same setting: the result for `COc1cc2cc(OC)c3cc4c(cc3c2c(OC)c1OC)OCO4` reads greater than 55.4 µM.
For `CCC[CH2][Sn]([CH2]CCC)([S]c1cccc2cccnc12)[S]c1cccc2cccnc12`, the GI50 is 0.234 µM and the TGI stood at 0.617 µM.
In the case of `COC(=O)C1(C(C)C)CCc2c(OC)ccc(OC)c2C1=O` (configuration not stated), the TGI is greater than 100 µM.
In the case of `OCc1cc2ccccc2c2c3c(ccc12)OCO3`, the GI50 was 23.2 µM and the TGI is 87 µM.

The test system of the next assay is T-47D breast. The assay can be described thus: NCI tumour cell line growth inhibition, 48 h.
Take `CC1CCc2nc[nH]c(=O)c21` (configuration not stated): the GI50 is greater than 100 µM and the TGI was greater than 100 µM.
Consider `Cc1nc2sccn2c1-c1csc(Nc2ccccc2Cl)n1`, for which the GI50 is 2.33 µM and the TGI was determined as 66.5 µM.
The like results for `FC(F)(F)c1cccc(Nc2nc(-c3ccccc3)nc3ncccc23)c1` were, in that order, 3.53 µM and 15.2 µM.
In the case of `OCc1cc2ccccc2c2c3c(ccc12)OCO3`, the GI50 was 24.1 µM and the TGI amounted to 81.5 µM.

For another assay, the system named is SN12C renal. Description: NCI tumour cell line growth inhibition, 48 h.
As for `CC1CCc2nc[nH]c(=O)c21` (configuration not stated), the GI50 is greater than 100 µM and the TGI was greater than 100 µM.
Regarding `Cc1cc(N(CCC#N)CCC#N)ccc1N=Nc1ccc(S(N)(=O)=O)cc1`, the TGI is greater than 100 µM.
The same measure, in the same setting: the value for `Cc1nc2c(ccc3ncccc32)[nH]1` was greater than 100 µM; that for `CN(C)C(=S)N=C(Nc1ccccc1)Nc1ccccc1` was greater than 100 µM; that for `Nc1ccccc1S(=O)(=O)N(CC(=O)O)c1ccccc1` was greater than 100 µM.
Same read-out and setting: the result for `COc1ccccc1N1C(=O)C2c3[nH]c4ccccc4c3C3CCC(C(C)(C)C)CC3C2C1=O` (configuration not stated) reads greater than 100 µM.
With `C=CCO[C@H]1CO[C@H]2[C@@H]1OC[C@@H]2Oc1ccc(Nc2ccnc(Nc3ccc(O[C@H]4CO[C@H]5[C@@H]4OC[C@@H]5OCC=C)c(Cl)c3)n2)cc1Cl`, the GI50 was 1.68 µM and the TGI was determined as 3.33 µM.
In the case of `O=C(O)CCC(NC(=O)c1ccc(Nc2nc3ccccc3nc2-c2cccs2)cc1)C(=O)O` (configuration not stated), the TGI was greater than 100 µM.
Still for that read-out and setting: the value for `COc1cc2ccnc([C@@H](OC(=O)c3ccccc3)c3ccc(OC)c(OC)c3OC)c2cc1OC` was greater than 100 µM.
Still for that read-out and setting: the value for `COC(=O)/C(C#N)=C1\NC(=O)c2ccccc21` was greater than 100 µM; that for `O=C(O)CCNCCCNCCC(=O)O` was greater than 100 µM.
`Cc1nc2sccn2c1-c1csc(Nc2ccccc2Cl)n1`: the GI50 was 3.58 µM and the TGI is greater than 100 µM.
